Data: article PMC9203742 (Nature Communications, 2022)
“And” between values parts separate entries of the source, which are not always exact repeats. Equal values may be shown once.

How the values were obtained:
[1] = biological target: T1, WT mGlu1 (Rattus norvegicus, UniProt P23385); format: cell-based; conditions: for Ca2+ response (delta ratio), WT: Fig.1e; for Ca2+ response of individual cells (source data Suppl Fig1), WT: single-cell values #1-#20; as to all read-outs here: test concentration or dose not given here
T1 construct: expressed in transfected cells; host or cells: HEK293
T1 sequence (P23385 19-1199): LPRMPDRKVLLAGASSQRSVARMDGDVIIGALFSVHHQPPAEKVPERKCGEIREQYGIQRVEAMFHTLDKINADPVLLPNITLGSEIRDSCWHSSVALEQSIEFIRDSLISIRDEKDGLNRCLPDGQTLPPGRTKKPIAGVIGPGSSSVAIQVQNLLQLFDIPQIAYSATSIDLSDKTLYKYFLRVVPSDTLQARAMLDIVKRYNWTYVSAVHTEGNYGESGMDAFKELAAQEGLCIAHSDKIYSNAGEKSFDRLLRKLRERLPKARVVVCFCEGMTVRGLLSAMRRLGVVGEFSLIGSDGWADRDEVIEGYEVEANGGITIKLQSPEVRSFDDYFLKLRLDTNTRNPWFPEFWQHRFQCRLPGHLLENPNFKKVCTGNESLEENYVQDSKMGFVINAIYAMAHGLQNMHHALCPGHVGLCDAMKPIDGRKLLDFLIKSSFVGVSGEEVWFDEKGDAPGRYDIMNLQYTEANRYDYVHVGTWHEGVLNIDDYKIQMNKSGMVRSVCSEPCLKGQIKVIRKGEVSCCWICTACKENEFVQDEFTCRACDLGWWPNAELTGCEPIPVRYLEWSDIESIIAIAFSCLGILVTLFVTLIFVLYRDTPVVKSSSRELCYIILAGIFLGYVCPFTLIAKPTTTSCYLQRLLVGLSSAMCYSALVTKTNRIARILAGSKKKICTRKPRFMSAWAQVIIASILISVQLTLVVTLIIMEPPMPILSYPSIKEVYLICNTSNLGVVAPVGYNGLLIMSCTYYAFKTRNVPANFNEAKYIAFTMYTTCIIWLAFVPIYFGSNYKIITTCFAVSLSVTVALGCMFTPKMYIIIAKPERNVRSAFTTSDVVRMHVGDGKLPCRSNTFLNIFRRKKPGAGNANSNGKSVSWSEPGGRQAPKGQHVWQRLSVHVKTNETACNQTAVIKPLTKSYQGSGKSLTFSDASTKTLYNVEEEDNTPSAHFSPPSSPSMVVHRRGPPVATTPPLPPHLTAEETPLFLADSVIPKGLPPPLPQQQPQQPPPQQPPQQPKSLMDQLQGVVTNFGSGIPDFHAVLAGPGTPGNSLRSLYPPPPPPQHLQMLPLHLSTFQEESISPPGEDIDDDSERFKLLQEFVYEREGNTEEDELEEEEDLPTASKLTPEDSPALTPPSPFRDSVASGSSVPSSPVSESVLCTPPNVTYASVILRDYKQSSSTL

[2] = biological target: T2, mGlu1 P58H/N264H mutant (Rattus norvegicus, UniProt P23385, N264H/P58H); assay: Fura-2 Ca2+ imaging in HEK293 cells expressing mGlu1 P58H/N264H; format: cell-based; conditions: for Ca2+ response (delta ratio), P58H/N264H: Fig.1e; for Ca2+ response of individual cells (source data Suppl Fig1), P58H/N264H: single-cell values #1-#20
T2 construct: expressed in transfected cells; host or cells: HEK293
T2 sequence (P23385 19-1199 P58H/N264H): as the sequence (P23385 19-1199) above, with P40H, N246H counted along it

[3] = biological target: T3, mGlu1 A59H/N264H mutant (Rattus norvegicus, UniProt P23385, A59H/N264H); assay: Fura-2 Ca2+ imaging in HEK293 cells expressing mGlu1 A59H/N264H; format: cell-based; conditions: for Ca2+ response (delta ratio), A59H/N264H: Fig.1e; for Ca2+ response of individual cells (source data Suppl Fig1), A59H/N264H: single-cell values #1-#20
T3 construct: expressed in transfected cells; host or cells: HEK293
T3 sequence (P23385 19-1199 A59H/N264H): as the sequence (P23385 19-1199) above, with A41H, N246H counted along it

[4] = biological target: T4, mGlu1 K61H/N264H mutant (Rattus norvegicus, UniProt P23385, K61H/N264H); assay: Fura-2 Ca2+ imaging in HEK293 cells expressing mGlu1 K61H/N264H; format: cell-based; conditions: for Ca2+ response (delta ratio), K61H/N264H: Fig.1e; for Ca2+ response of individual cells (source data Suppl Fig1), K61H/N264H: single-cell values
T4 construct: expressed in transfected cells; host or cells: HEK293
T4 sequence (P23385 19-1199 K61H/N264H): as the sequence (P23385 19-1199) above, with K43H, N246H counted along it

[5] = biological target: T5, mGlu1 P57H/N264H mutant (Rattus norvegicus, UniProt P23385, N264H/P57H); assay: Fura-2 Ca2+ imaging in HEK293 cells expressing mGlu1 P57H/N264H; format: cell-based; conditions: for Ca2+ response (delta ratio), P57H/N264H: Fig.1e; for Ca2+ response of individual cells (source data Suppl Fig1), P57H/N264H: single-cell values #1-#20
T5 construct: expressed in transfected cells; host or cells: HEK293
T5 sequence (P23385 19-1199 P57H/N264H): as the sequence (P23385 19-1199) above, with P39H, N246H counted along it

[6] = biological target: T6, mGlu1 E60H/N264H mutant (Rattus norvegicus, UniProt P23385, E60H/N264H); assay: Fura-2 Ca2+ imaging in HEK293 cells expressing mGlu1 E60H/N264H; format: cell-based; conditions: for Ca2+ response (delta ratio), E60H/N264H: Fig.1e; for Ca2+ response of individual cells (source data Suppl Fig1), E60H/N264H: single-cell values #1-#20
T6 construct: expressed in transfected cells; host or cells: HEK293
T6 sequence (P23385 19-1199 E60H/N264H): as the sequence (P23385 19-1199) above, with E42H, N246H counted along it

[7] = test system: HEK293 cells, vector control; assay: Fura-2 Ca2+ imaging in HEK293 cells transfected with control vector (Vec); format: cell-based; conditions: single-cell values #1-#20; as to Ca2+ response of individual cells (source data Suppl Fig1), Vec: test concentration or dose not given here
[8] = test system: mGlu1 construct not given; assay: Fura-2 Ca2+ imaging in HEK293 cells, source data Suppl Fig1, left group (c0-c8); construct not given; format: cell-based, rat; conditions: single-cell values, cells #15-#20; left group of third block
Text: (§1) Supplement 41467_2022_30828_MOESM6_ESM.zip/Ojima et al_source data_Suppl Fig.xlsx, sheet "Suppl Fig1" | column: Glu; NiCl2; CuCl2; ZnCl2; CdCl2; Na2PdCl2; Pd(bpy)

[9] = test system: HEK293 cells, vector control; assay: Fura-2 Ca2+ imaging in HEK293 cells transfected with control vector (Vec); format: cell-based; conditions: Fig.1e; as to Ca2+ response of individual cells (source data Suppl Fig1), Vec: test concentration or dose not given here
Text: Supplement 41467_2022_30828_MOESM6_ESM.zip/Ojima et al_source data_Main Figure.xlsx, sheet "Fig.1e" | column: Vec

[10] = biological target: T7, mGlu1 A59H/A265H mutant (Rattus norvegicus, UniProt P23385, A265H/A59H); assay: Fura-2 Ca2+ imaging in HEK293 cells expressing mGlu1 A59H/A265H; format: cell-based; conditions: single-cell values
T7 construct: expressed in transfected cells; host or cells: HEK293
T7 sequence (P23385 19-1199 A59H/A265H): as the sequence (P23385 19-1199) above, with A41H, A247H counted along it

[11] = test system: mGlu1 construct not given; assay: Fura-2 Ca2+ imaging in HEK293 cells, source data Suppl Fig1, middle group (c9-c17); construct not given; format: cell-based, rat; conditions: single-cell values, cells #15-#20; middle group of third block
Text: as §1

[12] = biological target: T7, mGlu1 A59H/A265H mutant; assay: Fura-2 Ca2+ imaging in HEK293 cells expressing mGlu1 A59H/A265H; format: cell-based; conditions: Fig.1e
[13] = biological target: T8, mGlu1 A59H/G266H mutant (Rattus norvegicus, UniProt P23385, A59H/G266H); assay: Fura-2 Ca2+ imaging in HEK293 cells expressing mGlu1 A59H/G266H; format: cell-based; conditions: single-cell values; as to Ca2+ response (delta ratio), A59H/G266H: test concentration or dose not given here
T8 construct: expressed in transfected cells; host or cells: HEK293
T8 sequence (P23385 19-1199 A59H/G266H): as the sequence (P23385 19-1199) above, with A41H, G248H counted along it

[14] = test system: mGlu1 construct not given; assay: Fura-2 Ca2+ imaging in HEK293 cells, source data Suppl Fig1, right group (c18-c26); construct not given; format: cell-based, rat; conditions: single-cell values, cells #15-#20; right group of third block
Text: as §1

[15] = biological target: T8, mGlu1 A59H/G266H mutant; assay: Fura-2 Ca2+ imaging in HEK293 cells expressing mGlu1 A59H/G266H; format: cell-based; conditions: Fig.1e

SMILES | Ca2+ response (delta ratio), WT [1] | Ca2+ response of individual cells (source data Suppl Fig1), WT [1] | Ca2+ response (delta ratio), P58H/N264H [2] | Ca2+ response of individual cells (source data Suppl Fig1), P58H/N264H [2] | Ca2+ response (delta ratio), A59H/N264H [3] | Ca2+ response of individual cells (source data Suppl Fig1), A59H/N264H [3] | Ca2+ response (delta ratio), K61H/N264H [4] | Ca2+ response of individual cells (source data Suppl Fig1), K61H/N264H [4] | Ca2+ response (delta ratio), P57H/N264H [5] | Ca2+ response of individual cells (source data Suppl Fig1), P57H/N264H [5] | Ca2+ response (delta ratio), E60H/N264H [6] | Ca2+ response of individual cells (source data Suppl Fig1), E60H/N264H [6] | Ca2+ response of individual cells (source data Suppl Fig1), Vec [7] | Ca2+ response of individual cells (source data, sheet Suppl Fig1) [8] | Ca2+ response (delta ratio), Vec [9] | Ca2+ response of individual cells (source data Suppl Fig1), A59H/A265H [10] | Ca2+ response of individual cells (source data, sheet Suppl Fig1) [11] | Ca2+ response (delta ratio), A59H/A265H [12] | Ca2+ response of individual cells (source data Suppl Fig1), A59H/G266H [13] | Ca2+ response of individual cells (source data, sheet Suppl Fig1) [14] | other results
[Cl][Cd][Cl] [CdCl2] | 0.005362 | 0.0129 and 0.04075 and 0.009069 and 0.006385 and -0.009131 and -0.006215 and 0.2594 and 0.005608 and -0.007808 and -0.007346 and 0.0007769 and -0.1317 and -0.001 and -0.06408 and -0.004269 and 0.01558 and -0.01997 and 0.01184 and 0.001662 and -0.005277 | -0.005715 | 0.0003 and -0.006238 and 0.002354 and -0.001808 and -0.01828 and -0.02019 and -0.005077 and -0.009385 and -0.005592 and -0.02068 and -0.009223 and 0.09017 and -0.003262 and -0.06371 and -0.003885 and -0.002246 and -0.002192 and 0.0005231 and -0.03079 | 0.02484 | 0.2588 and -0.01875 and -0.0009538 and 0.004669 and -0.003354 and -0.0081 and -0.03695 and -0.009438 and -0.004808 and -0.01072 and -0.01152 and -0.03409 and 0.4867 and -0.01683 and -0.02968 and -0.006508 and -0.0288 and -0.01271 and -0.01325 and -0.006908 | 0.01695 | 0.003946 and -0.03622 and -0.01614 and -0.01244 and -0.01964 and -0.05083 and -0.008715 and -0.008331 and -0.02813 and 0.002531 and -0.03307 and -0.01172 and 0.5817 and -0.01188 | 0.03091 | -0.01735 and -0.005323 and -0.01104 and -0.01126 and -0.0097 and -0.003008 and -0.01663 and -0.0067 and -0.01865 and 0.6823 and 0.01155 and -0.0096 and 0.03494 and -0.09688 and -0.01634 and 0.024 and 0.009592 and -0.004469 and 0.09844 and -0.01566 | -0.01186 | -0.009869 and -0.0139 and -0.008638 and -0.01472 and -0.009062 and -0.006669 and -0.004677 and -0.01493 and -0.004954 and 0.001138 and -0.005708 and -0.002215 and 0.01407 and 0.02235 and -0.01174 and -0.009823 and -0.008654 and -0.007631 and -0.02142 and -0.1201 | -0.01042 and -0.01834 and -0.01502 and -0.05052 and -0.04072 and -0.03065 and -0.02875 and -0.03001 and -0.006638 and -0.04038 and -0.04515 and -0.04559 and -0.05998 and -0.01618 and -0.0239 and -0.03979 and -0.02847 and -0.03687 and -0.04005 and -0.03582 | -0.005954 and 0.01795 and 0.005315 and -0.02397 and -0.001754 and -0.003654 | -0.03216 | 0.002869 and 0.004277 and -0.0003846 and 0.01228 and 0.01648 and -0.01175 and -0.03786 and 0.01586 and 0.002777 and 0.3308 and 0.2114 and -0.005654 and -0.02447 and 0.0205 | 0.01055 and 0.01355 and -0.009131 and -0.01706 and 0.009777 and -0.01645 | 0.02642 | -0.01723 and 0.01558 and 0.01066 and 0.005608 and 0.01182 and 0.0279 and -0.1123 and -0.0058 and -0.01721 and 0.02262 and 0.01814 and -0.006169 and -0.01936 and 0.04175 | 0.03353 and 0.009331 and 0.006908 and 0.01689 and -0.009408 and 0.005315 | Ca2+ response (delta ratio), A59H/G266H [15]: 0.001928
[Cl][Cu][Cl] [CuCl2] | 0.02902 | 0.02565 and 0.01115 and 0.003838 and 0.01123 and 0.01654 and 0.01648 and -0.004477 and -0.001046 and -0.0009077 and 0.04058 and 0.008923 and 0.1117 and -0.006138 and 0.001246 and 0.02892 and 0.05005 and 0.02387 and -0.0088 and -0.01073 and 0.2624 | -0.01421 | -0.02928 and 0.02135 and -0.1614 and -0.04317 and -0.03766 and -0.009985 and 0.06338 and -0.01091 and -0.1246 and -0.02604 and 0.008315 and -0.1403 and -0.007362 and 0.04025 and -0.04095 and 0.177 and 0.01632 and 0.001515 and 0.03036 and -0.0111 | -0.008971 | 0.01442 and -0.1061 and -0.004715 and -0.004738 and -0.008577 and -0.007731 and 0.0007462 and -0.01637 and -0.006738 and -0.004831 and 0.04273 and 0.05223 and 0.05741 and -0.09539 and -0.006538 and 0.01191 and -0.02261 and -0.005077 and -0.03944 and -0.03002 | -0.008802 | -0.02337 and 0.01083 and -0.01322 and 0.006669 and -0.02188 and -0.01248 and -0.01492 and -0.01697 and -0.01238 and 0.05283 and -0.01893 and -0.01583 and -0.01651 and -0.01879 | 0.007634 | -0.009615 and 0.002477 and 0.01378 and 0.02434 and 0.0008462 and 0.008 and -0.0007 and 0.008062 and 0.01831 and -0.0008538 and 0.01338 and 0.01485 and 0.01 and 0.001692 and -0.005731 and 0.03126 and 0.0103 and 0.01328 and -0.004977 and 0.003977 | -0.0006131 | 0.001946 and 0.001985 and -0.004585 and 0.05012 and -0.01047 and -0.007438 and -0.008146 and -0.01882 and 0.02938 and -0.02675 and -0.0009231 and -0.009708 and 0.06405 and 0.006685 and -0.01392 and -0.007992 and -0.007615 and -0.01812 and -0.013 and -0.01895 | 0.02461 and -0.003092 and 0.01753 and 0.02088 and 0.01475 and -0.003385 and 0.07142 and 0.01504 and 0.02807 and 0.04525 and 0.001746 and 0.01458 and 0.01948 and -0.006131 and 0.04009 and 0.01931 and 0.02889 and 0.01229 and -0.005492 and -0.004385 | 0.006485 and -0.01132 and -0.01643 and -0.02029 and -0.01602 and -0.0035 | 0.01757 | -0.01552 and 0.009746 and -0.01265 and -0.0065 and 0.009708 and -0.002746 and 0.009762 and -0.01072 and 0.004462 and -0.01463 and 0.01478 and 0.0025 and 0.01092 and -0.009138 | -0.002923 and 0.002562 and 0.004815 and -0.0036 and -0.004154 and 0.002577 | -0.0005365 | -0.005931 and -0.06262 and 0.006338 and -0.05078 and -0.003546 and -0.0521 and 0.002277 and -0.02358 and 0.04298 and -0.0436 and -0.1049 and -0.001831 and 0.0158 and -0.01046 | -0.007831 and 0.008223 and -0.0022 and 0.006269 and -0.002515 and 0.01038 | Ca2+ response (delta ratio), A59H/G266H [15]: -0.01398
